In ChEMBL document CHEMBL5724806, “Unraveling interindividual differences and functional consequences of gut microbial metabolism of immunosuppressants” (2024):

How the values were obtained:
Type in all cases: ADME
[1] = (§1) The drug is tested on Lactobacillus reuteri strain: DSM20016 for biotransformation under anaerobic condition. The drug concentrations were measured over 6 timepoints collected between 0 and 12 hours of incubation by liquid-chromatography-coupled mass spectrometry (LC–MS); parameters: dose 5 uM, timepoint 0, 1.5, 3, 6, 9, 12 hours; conditions: limosilactobacillus reuteri, 5 µM
[2] = (§2) The drug is tested on Actinomyces graevenitzii strain: DSM15540 for biotransformation under microaerobic condition. The drug concentrations were measured over 6 timepoints collected between 0 and 12 hours of incubation by liquid-chromatography-coupled mass spectrometry (LC–MS); parameters: dose 5 uM, timepoint 0, 1.5, 3, 6, 9, 12 hours; conditions: 5 µM
[3] = as §1, with “the gut metagenome community of P-04 with ENA study accession number: PRJEB31790” for “Lactobacillus reuteri strain: DSM20016”, “7” for “6”; parameters: dose 5 uM, timepoint 0, 0.75, 1.5, 3, 6, 9, 12 hours; conditions: 5 µM
[4] = as §2, with “the gut metagenome community of T-02 with ENA study accession number: PRJEB31790” for “Actinomyces graevenitzii strain: DSM15540”, “7” for “6”; parameters: dose 5 uM, timepoint 0, 0.75, 1.5, 3, 6, 9, 12 hours; conditions: 5 µM
[5] = The drug is tested on Capnocytophaga ochracea strain: DSM7271 for biotransformation under anaerobic condition. The drug concentrations were measured over 6 timepoints collected between 0 and 12 hours of incubation by liquid-chromatography-coupled mass spectrometry (LC–MS); parameters: dose 5 uM, timepoint 0, 1.5, 3, 6, 9, 12 hours; conditions: 5 µM
[6] = The drug is tested on Escherichia coli strain: DSM27469 for biotransformation under microaerobic condition. The drug concentrations were measured over 6 timepoints collected between 0 and 12 hours of incubation by liquid-chromatography-coupled mass spectrometry (LC–MS); parameters: dose 5 uM, timepoint 0, 1.5, 3, 6, 9, 12 hours; conditions: 5 µM
[7] = as §2, with “the gut metagenome community of A-01 with ENA study accession number: PRJEB31790” for “Actinomyces graevenitzii strain: DSM15540”, “7” for “6”; parameters: dose 5 uM, timepoint 0, 0.75, 1.5, 3, 6, 9, 12 hours; conditions: 5 µM
[8] = The drug is tested on Bifidobacterium adolescentis strain: DSM20083 for biotransformation under anaerobic condition. The drug concentrations were measured over 6 timepoints collected between 0 and 12 hours of incubation by liquid-chromatography-coupled mass spectrometry (LC–MS); parameters: dose 5 uM, timepoint 0, 1.5, 3, 6, 9, 12 hours; conditions: 5 µM
[9] = as §2, with “the gut metagenome community of A-08 with ENA study accession number: PRJEB31790” for “Actinomyces graevenitzii strain: DSM15540”, “7” for “6”; parameters: dose 5 uM, timepoint 0, 0.75, 1.5, 3, 6, 9, 12 hours; conditions: 5 µM
[10] = as §2, with “the gut metagenome community of A-06 with ENA study accession number: PRJEB31790” for “Actinomyces graevenitzii strain: DSM15540”, “7” for “6”; parameters: dose 5 uM, timepoint 0, 0.75, 1.5, 3, 6, 9, 12 hours; conditions: 5 µM
[11] = as §1, with “the gut metagenome community of A-07 with ENA study accession number: PRJEB31790” for “Lactobacillus reuteri strain: DSM20016”, “7” for “6”; parameters: dose 5 uM, timepoint 0, 0.75, 1.5, 3, 6, 9, 12 hours; conditions: 5 µM
[12] = as §1, with “the gut metagenome community of T-02 with ENA study accession number: PRJEB31790” for “Lactobacillus reuteri strain: DSM20016”, “7” for “6”; parameters: dose 5 uM, timepoint 0, 0.75, 1.5, 3, 6, 9, 12 hours; conditions: 5 µM
[13] = The drug is tested on Lactobacillus gasseri strain: DSM20243 for biotransformation under anaerobic condition. The drug concentrations were measured over 6 timepoints collected between 0 and 12 hours of incubation by liquid-chromatography-coupled mass spectrometry (LC–MS); parameters: dose 5 uM, timepoint 0, 1.5, 3, 6, 9, 12 hours; conditions: 5 µM
[14] = as §2, with “the gut metagenome community of T-05 with ENA study accession number: PRJEB31790” for “Actinomyces graevenitzii strain: DSM15540”, “7” for “6”; parameters: dose 5 uM, timepoint 0, 0.75, 1.5, 3, 6, 9, 12 hours; conditions: 5 µM
[15] = as §1, with “the gut metagenome community of P-02 with ENA study accession number: PRJEB31790” for “Lactobacillus reuteri strain: DSM20016”, “7” for “6”; parameters: dose 5 uM, timepoint 0, 0.75, 1.5, 3, 6, 9, 12 hours; conditions: 5 µM
[16] = The drug is tested on Streptococcus sanguinis strain: DSM20567 for biotransformation under anaerobic condition. The drug concentrations were measured over 6 timepoints collected between 0 and 12 hours of incubation by liquid-chromatography-coupled mass spectrometry (LC–MS); parameters: dose 5 uM, timepoint 0, 1.5, 3, 6, 9, 12 hours; conditions: 5 µM
[17] = as §1, with “the gut metagenome community of A-05 with ENA study accession number: PRJEB31790” for “Lactobacillus reuteri strain: DSM20016”, “7” for “6”; parameters: dose 5 uM, timepoint 0, 0.75, 1.5, 3, 6, 9, 12 hours; conditions: 5 µM
[18] = The drug is tested on Streptococcus mitis strain: DSM12643 for biotransformation under microaerobic condition. The drug concentrations were measured over 6 timepoints collected between 0 and 12 hours of incubation by liquid-chromatography-coupled mass spectrometry (LC–MS); parameters: dose 5 uM, timepoint 0, 1.5, 3, 6, 9, 12 hours; conditions: 5 µM
[19] = The drug is tested on Faecalibacterium prausnitzii strain: DSM17677 for biotransformation under anaerobic condition. The drug concentrations were measured over 6 timepoints collected between 0 and 12 hours of incubation by liquid-chromatography-coupled mass spectrometry (LC–MS); parameters: dose 5 uM, timepoint 0, 1.5, 3, 6, 9, 12 hours; conditions: faecalibacterium duncaniae, 5 µM
[20] = The drug is tested on Lactobacillus paracasei strain: ATCC27092 for biotransformation under microaerobic condition. The drug concentrations were measured over 6 timepoints collected between 0 and 12 hours of incubation by liquid-chromatography-coupled mass spectrometry (LC–MS); parameters: dose 5 uM, timepoint 0, 1.5, 3, 6, 9, 12 hours; conditions: lacticaseibacillus paracasei, 5 µM
[21] = as §1, with “the gut metagenome community of T-03 with ENA study accession number: PRJEB31790” for “Lactobacillus reuteri strain: DSM20016”, “7” for “6”; parameters: dose 5 uM, timepoint 0, 0.75, 1.5, 3, 6, 9, 12 hours; conditions: 5 µM
[22] = The drug is tested on Actinomyces naeslundi strain: DSM43013 for biotransformation under microaerobic condition. The drug concentrations were measured over 6 timepoints collected between 0 and 12 hours of incubation by liquid-chromatography-coupled mass spectrometry (LC–MS); parameters: dose 5 uM, timepoint 0, 1.5, 3, 6, 9, 12 hours; conditions: actinomyces naeslundii, 5 µM
[23] = as §2, with “the gut metagenome community of A-05 with ENA study accession number: PRJEB31790” for “Actinomyces graevenitzii strain: DSM15540”, “7” for “6”; parameters: dose 5 uM, timepoint 0, 0.75, 1.5, 3, 6, 9, 12 hours; conditions: 5 µM
[24] = The drug is tested on Streptococcus anginosus strain: DSM20563 for biotransformation under microaerobic condition. The drug concentrations were measured over 6 timepoints collected between 0 and 12 hours of incubation by liquid-chromatography-coupled mass spectrometry (LC–MS); parameters: dose 5 uM, timepoint 0, 1.5, 3, 6, 9, 12 hours; conditions: 5 µM
[25] = The drug is tested on Lactobacillus reuteri strain: DSM20016 for biotransformation under microaerobic condition. The drug concentrations were measured over 6 timepoints collected between 0 and 12 hours of incubation by liquid-chromatography-coupled mass spectrometry (LC–MS); parameters: dose 5 uM, timepoint 0, 1.5, 3, 6, 9, 12 hours; conditions: limosilactobacillus reuteri, 5 µM
[26] = as §1, with “the gut metagenome community of A-01 with ENA study accession number: PRJEB31790” for “Lactobacillus reuteri strain: DSM20016”, “7” for “6”; parameters: dose 5 uM, timepoint 0, 0.75, 1.5, 3, 6, 9, 12 hours; conditions: 5 µM
[27] = The drug is tested on Gemella morbillorum strain: DSM20572 for biotransformation under anaerobic condition. The drug concentrations were measured over 6 timepoints collected between 0 and 12 hours of incubation by liquid-chromatography-coupled mass spectrometry (LC–MS); parameters: dose 5 uM, timepoint 0, 1.5, 3, 6, 9, 12 hours; conditions: 5 µM
[28] = as §1, with “the gut metagenome community of A-02 with ENA study accession number: PRJEB31790” for “Lactobacillus reuteri strain: DSM20016”, “7” for “6”; parameters: dose 5 uM, timepoint 0, 0.75, 1.5, 3, 6, 9, 12 hours; conditions: 5 µM
[29] = The drug is tested on Lactobacillus paracasei strain: ATCC27092 for biotransformation under anaerobic condition. The drug concentrations were measured over 6 timepoints collected between 0 and 12 hours of incubation by liquid-chromatography-coupled mass spectrometry (LC–MS); parameters: dose 5 uM, timepoint 0, 1.5, 3, 6, 9, 12 hours; conditions: lacticaseibacillus paracasei, 5 µM
[30] = The drug is tested on Streptococcus salivarius strain: DSM20560 for biotransformation under anaerobic condition. The drug concentrations were measured over 6 timepoints collected between 0 and 12 hours of incubation by liquid-chromatography-coupled mass spectrometry (LC–MS); parameters: dose 5 uM, timepoint 0, 1.5, 3, 6, 9, 12 hours; conditions: 5 µM
[31] = as §1, with “the gut metagenome community of P-01 with ENA study accession number: PRJEB31790” for “Lactobacillus reuteri strain: DSM20016”, “7” for “6”; parameters: dose 5 uM, timepoint 0, 0.75, 1.5, 3, 6, 9, 12 hours; conditions: 5 µM

SMILES	Bacterial Biotransformation [1]	Bacterial Biotransformation [2]	Bacterial Biotransformation [3]	Bacterial Biotransformation [4]	Bacterial Biotransformation [5]	Bacterial Biotransformation [6]	Bacterial Biotransformation [7]	Bacterial Biotransformation [8]	Bacterial Biotransformation [9]	Bacterial Biotransformation [10]	Bacterial Biotransformation [11]	Bacterial Biotransformation [12]	Bacterial Biotransformation [13]	Bacterial Biotransformation [14]	Bacterial Biotransformation [15]	Bacterial Biotransformation [16]	Bacterial Biotransformation [17]	Bacterial Biotransformation [18]	Bacterial Biotransformation [19]	Bacterial Biotransformation [20]	further results
COc1ccc([C@@H]2Sc3ccccc3N(CCN(C)C)C(=O)[C@@H]2OC(C)=O)cc1 [DILTIAZEM]	Compound NOT metabolized	Compound NOT metabolized	Compound NOT metabolized	Compound metabolized	Compound NOT metabolized	Compound metabolized	Compound metabolized	Compound NOT metabolized	Compound metabolized	Compound metabolized	Compound metabolized	Compound NOT metabolized	Compound NOT metabolized	Compound metabolized	Compound metabolized	Compound NOT metabolized	Compound metabolized	Compound NOT metabolized	Compound NOT metabolized	Compound NOT metabolized	Bacterial Biotransformation [21]: Compound NOT metabolized; Bacterial Biotransformation [22]: Compound NOT metabolized; Bacterial Biotransformation [23]: Compound metabolized; Bacterial Biotransformation [24]: Compound NOT metabolized; Bacterial Biotransformation [25]: Compound NOT metabolized; Bacterial Biotransformation [26]: Compound metabolized; Bacterial Biotransformation [27]: Compound NOT metabolized; Bacterial Biotransformation [28]: Compound metabolized; Bacterial Biotransformation [29]: Compound NOT metabolized; Bacterial Biotransformation [30]: Compound NOT metabolized; Bacterial Biotransformation [31]: Compound metabolized
COc1c(C)c2c(c(O)c1C/C=C(\C)CCC(=O)OCCN1CCOCC1)C(=O)OC2 [MYCOPHENOLATE MOFETIL]	Compound NOT metabolized	Compound metabolized	Compound metabolized	Compound metabolized	Compound NOT metabolized	Compound metabolized	Compound metabolized	Compound NOT metabolized	Compound metabolized	Compound metabolized	Compound metabolized	Compound metabolized	Compound metabolized	Compound metabolized	Compound metabolized	Compound metabolized	Compound metabolized	Compound metabolized	Compound metabolized	Compound NOT metabolized	Bacterial Biotransformation [21]: Compound metabolized; Bacterial Biotransformation [22]: Compound NOT metabolized; Bacterial Biotransformation [23]: Compound metabolized; Bacterial Biotransformation [24]: Compound metabolized; Bacterial Biotransformation [25]: Compound NOT metabolized; Bacterial Biotransformation [26]: Compound metabolized; Bacterial Biotransformation [27]: Compound metabolized; Bacterial Biotransformation [28]: Compound metabolized; Bacterial Biotransformation [29]: Compound metabolized; Bacterial Biotransformation [30]: Compound metabolized; Bacterial Biotransformation [31]: Compound metabolized
CC(C)NCC(O)COc1ccc(CC(N)=O)cc1 (stereo not drawn) [ATENOLOL]	Compound NOT metabolized	Compound NOT metabolized	Compound NOT metabolized	Compound NOT metabolized	Compound NOT metabolized	Compound NOT metabolized	Compound NOT metabolized	Compound NOT metabolized	Compound NOT metabolized	Compound NOT metabolized	Compound NOT metabolized	Compound NOT metabolized	Compound NOT metabolized	Compound NOT metabolized	Compound NOT metabolized	Compound NOT metabolized	Compound NOT metabolized	Compound NOT metabolized	Compound NOT metabolized	Compound NOT metabolized	Bacterial Biotransformation [21]: Compound NOT metabolized; Bacterial Biotransformation [22]: Compound NOT metabolized; Bacterial Biotransformation [23]: Compound NOT metabolized; Bacterial Biotransformation [24]: Compound NOT metabolized; Bacterial Biotransformation [25]: Compound NOT metabolized; Bacterial Biotransformation [26]: Compound NOT metabolized; Bacterial Biotransformation [27]: Compound NOT metabolized; Bacterial Biotransformation [28]: Compound NOT metabolized; Bacterial Biotransformation [29]: Compound NOT metabolized; Bacterial Biotransformation [30]: Compound NOT metabolized; Bacterial Biotransformation [31]: Compound NOT metabolized
